From US20220364132A1, “METHOD FOR FORMING A STORAGE STABLE H[…] A LIGNO[…]” (Sekab E- Technology AB, priority 2019, published 2022)

Assays:
Format in all cases: cell-based
[1] = tested on: Lactobacillus; assay: Bacterial contamination in a non-separated (non-detoxified) spruce hydrolysate, lactic acid by HPLC; conditions: FIG. 2
Method: Non-detoxified spruce hydrolysate (with added 2 g/l yeast extract; 0.5% sodium phosphate; 0.5 g/l diammonium phosphate; 2 g/l peptone and diluted with water to 30 g/l glucose) was filter sterilized and used to represent feed media. An inoculum was prepared using MRS media and the same contaminated sample as used in previous experiments, and was incubated at 37° C. overnight (16 hours). Sodium sulfite was added at concentrations of 0 mM, 5 mM, 10 mM, 20 mM and 40 mM, respectively, to 25 ml serum bottles with 22.5 ml of the feed media. After inoculation, the bottles were placed on a multiple magnetic stirring plate at room temperature, with samples taken periodically and analyzed using HPLC.
The hydrolysate used may represent a feed stream where no separation of the pretreatment liquid and solid component has taken place. In other words, hydrolysis and fermentation inhibitors are still present in the feed stream.

[2] = tested on: Lactobacillus sp.; assay: Bacterial contamination in a sugar-rich hydrolysate comprising 10% non-detoxified spruce hydrolysate, glucose by HPLC
Method: (§1) To test the theory, synthetic media was made containing about 90 g/l glucose, 0.5% sodium phosphate/phosphoric acid buffer (pH 5.5), 0.5 g/l diammonium phosphate, 2 g/l yeast extract and 2 g/l peptone. This solution (45 ml) was added to 50 ml serum bottles, along with a magnetic stirrer bar, and autoclaved, where after sodium sulfite at concentrations of 5, 10, 20 and 40 mM was added, while some bottles had no sulfite added, which served as control (0 mM). […] This culture was incubated at 37° C. for 36 hours and used to inoculate all the serum bottles (10% v/v). The serum bottles were then sealed with an airtight septum and a metal ring clamp and two needles were inserted through the septum to allow for sampling. The serum bottles were placed on a magnetic stirrer plate at room temperature (since storage tanks are typically kept at room temperature), with stirring at 100 rpm. Samples were taken periodically and analyzed for glucose and lactic acid using HPLC. Experiments were performed in triplicate. The experiments were continued for 11 days.
Experiments in this example were performed according to the description in example 2 with the difference that the sugar-rich hydrolysate contained 10% (v/v) non-detoxified spruce hydrolysate. This was done to simulate sugar-rich hydrolysate with some inhibitory impurities present that may arise from insufficient separation and/or washing.
In the “Experiment A” samples, serum bottles were inoculated with Lactobacillus sp. at time 0 hours and incubated at room temperature for 21 days. Samples were taken periodically and analyzed for glucose and lactic acid (not shown here) using HPLC.
In the “Experiment B” samples, serum bottles were inoculated twice—firstly on the first day and again two weeks later, to simulate a re-infection and test the longevity of the inhibitory effect of sodium sulfite.
In Experiment “C”, the third group of serum bottles were inoculated after two weeks of storage at room temperature and inoculated with Lactobacillus (after 14 days).

[3] = tested on: lactic acid bacteria; assay: Bacterial contamination in a sugar-rich hydrolysate (synthetic media), glucose and lactic acid by HPLC; conditions: 5, 10, 20 and 40 mM, room temperature, 11 days, FIG. 3
Source text: The aim of this experiment was to test the potential of sodium sulfite to control bacterial contamination in the storage tanks which contain sugar-rich hydrolysate streams before they are used in fermentations. The hydrolysate is representative of a hydrolysate according to the present disclosure.
as §1

[4] = tested on: Lactobacillus sp.; assay: Storage of a sugar-rich hydrolysate inoculated with Lactobacillus sp., glucose by HPLC
Method: as §1
Storage of sugar-rich hydrolysate with addition of 5-40 mM was performed in accordance with the description of example 2. In this example, the samples were prepared and handled as in example 2. In other words, the “Experiment A” samples in this example are identical to those of example 2, and these were used as a reference for the “Experiment B” and “Experiment C” samples, as well as for validating the results of example 2.
The “Experiment B” samples were inoculated with a Lactobacillus sp. at time 0 hours, and again after 336 hours. This was done to test the infection resistance of samples that were exposed to more than one culture of Lactobacillus sp; i.e. samples that were re-infected after two weeks.
The samples in “Experiment C” were stored at ambient room temperature for 2 weeks, after which Lactobacillus was added to the flasks, after 336 hours. Samples were incubated for another 7 days and a total of 21 days as for the other two experiments.

Compound: O=S([O-])[O-].[Na+].[Na+] [sodium sulfite]
- antimicrobial effect on the hydrolysate ([1]; 5 to 40 mM sodium sulfite, room temperature): no antimicrobial effect
- bacterial growth ([1]; sodium sulfite added (5 to 40 mM)): increased bacterial growth
- effect on Lactobacillus sp. growth ([2]; 40 mM, hydrolysate with 10% (v/v) non-detoxified spruce hydrolysate, Experiments A-C): antimicrobial effect
- growth relative to sample with no sulfite (detoxification effect) ([2]; 5-20 mM, hydrolysate with 10% (v/v) non-detoxified spruce hydrolysate): grew faster
- Glucose ([2]; Experiment A, 5 mM, 0 h): 83.8 g/L
- Glucose ([2]; Experiment A, 5 mM, 168 h): 71.9 g/L
- Glucose ([2]; Experiment A, 5 mM, 336 h): 66.3 g/L
- Glucose ([2]; Experiment A, 5 mM, 508 h): 65.9 g/L
- Glucose ([2]; Experiment A, 10 mM, 0 h): 84.8 g/L
- Glucose ([2]; Experiment A, 10 mM, 168 h): 72.9 g/L
- Glucose ([2]; Experiment A, 10 mM, 336 h): 64.6 g/L
- Glucose ([2]; Experiment A, 10 mM, 508 h): 63.8 g/L
- Glucose ([2]; Experiment A, 20 mM, 0 h): 83.4 g/L
- Glucose ([2]; Experiment A, 20 mM, 168 h): 75.2 g/L
- Glucose ([2]; Experiment A, 20 mM, 336 h): 70.1 g/L
- Glucose ([2]; Experiment A, 20 mM, 508 h): 67.2 g/L
- Glucose ([2]; Experiment A, 40 mM, 0 h): 82.0 g/L
- Glucose ([2]; Experiment A, 40 mM, 168 h): 80.1 g/L
- Glucose ([2]; Experiment A, 40 mM, 336 h): 77.0 g/L
- Glucose ([2]; Experiment A, 40 mM, 508 h): 82.5 g/L
- Glucose ([2]; Experiment B, 5 mM, 0 h): 83.8 g/L
- Glucose ([2]; Experiment B, 5 mM, 168 h): 72.6 g/L
- Glucose ([2]; Experiment B, 5 mM, 336 h): 66.8 g/L
- Glucose ([2]; Experiment B, 5 mM, 508 h): 69.0 g/L
- Glucose ([2]; Experiment B, 10 mM, 0 h): 81.7 g/L
- Glucose ([2]; Experiment B, 10 mM, 168 h): 71.5 g/L
- Glucose ([2]; Experiment B, 10 mM, 336 h): 67.9 g/L
- Glucose ([2]; Experiment B, 10 mM, 508 h): 73.4 g/L
- Glucose ([2]; Experiment B, 20 mM, 0 h): 83.1 g/L
- Glucose ([2]; Experiment B, 20 mM, 168 h): 69.0 g/L
- Glucose ([2]; Experiment B, 20 mM, 336 h): 72.4 g/L
- Glucose ([2]; Experiment B, 20 mM, 508 h): 72.1 g/L
- Glucose ([2]; Experiment B, 40 mM, 0 h): 85.2 g/L
- Glucose ([2]; Experiment B, 40 mM, 168 h): 86.6 g/L
- Glucose ([2]; Experiment B, 40 mM, 336 h): 86.2 g/L
- Glucose ([2]; Experiment B, 40 mM, 508 h): 86.3 g/L
- Glucose ([2]; Experiment C, 5 mM, 0 h): 85.4 g/L
- Glucose ([2]; Experiment C, 5 mM, 168 h): 84.8 g/L
- Glucose ([2]; Experiment C, 5 mM, 336 h): 83.4 g/L
- Glucose ([2]; Experiment C, 5 mM, 508 h): 77.1 g/L
- Glucose ([2]; Experiment C, 10 mM, 0 h): 84.8 g/L
- Glucose ([2]; Experiment C, 10 mM, 168 h): 81.7 g/L
- Glucose ([2]; Experiment C, 10 mM, 336 h): 81.9 g/L
- Glucose ([2]; Experiment C, 10 mM, 508 h): 75.5 g/L
- Glucose ([2]; Experiment C, 20 mM, 0 h): 85.9 g/L
- Glucose ([2]; Experiment C, 20 mM, 168 h): 82.3 g/L
- Glucose ([2]; Experiment C, 20 mM, 336 h): 83.5 g/L
- Glucose ([2]; Experiment C, 20 mM, 508 h): 79.5 g/L
- Glucose ([2]; Experiment C, 40 mM, 0 h): 80.9 g/L
- Glucose ([2]; Experiment C, 40 mM, 168 h): 81.0 g/L
- Glucose ([2]; Experiment C, 40 mM, 336 h): 85.6 g/L
- Glucose ([2]; Experiment C, 40 mM, 508 h): 82.6 g/L
- concentration of lactic acid [3]: 0 g/L
- growth of lactic acid bacteria [3]: inhibited the growth
- growth of Lactobacillus sp. ([4]; 5, 10, 20 and 40 mM, three weeks of incubation): inhibited the growth
- Glucose ([4]; Experiment A, 5 mM, 0 h): 83.3 g/L
- Glucose ([4]; Experiment A, 5 mM, 172 h): 84.0 g/L
- Glucose ([4]; Experiment A, 5 mM, 340 h): 83.5 g/L
- Glucose ([4]; Experiment A, 5 mM, 510 h): 83.2 g/L
- Glucose ([4]; Experiment A, 10 mM, 0 h): 84.1 g/L
- Glucose ([4]; Experiment A, 10 mM, 172 h): 85.3 g/L
- Glucose ([4]; Experiment A, 10 mM, 340 h): 82.8 g/L
- Glucose ([4]; Experiment A, 10 mM, 510 h): 82.2 g/L
- Glucose ([4]; Experiment A, 20 mM, 0 h): 83.7 g/L
- Glucose ([4]; Experiment A, 20 mM, 172 h): 85.6 g/L
- Glucose ([4]; Experiment A, 20 mM, 340 h): 86.8 g/L
- Glucose ([4]; Experiment A, 20 mM, 510 h): 84.7 g/L
- Glucose ([4]; Experiment A, 40 mM, 0 h): 81.5 g/L
- Glucose ([4]; Experiment A, 40 mM, 172 h): 83.2 g/L
- Glucose ([4]; Experiment A, 40 mM, 340 h): 83.2 g/L
- Glucose ([4]; Experiment A, 40 mM, 510 h): 83.6 g/L
- glucose consumption ([4]; Experiment A, flasks with added sodium sulfite, three weeks): no glucose consumption
- bacterial growth ([4]; Experiment B (inoculated at 0 h and 336 h), 5 mM or more, 21 days): No signs of bacterial growth
- Glucose ([4]; Experiment B, 5 mM, 0 h): 82.3 g/L
- Glucose ([4]; Experiment B, 5 mM, 172 h): 82.9 g/L
- Glucose ([4]; Experiment B, 5 mM, 340 h): 82.6 g/L
- Glucose ([4]; Experiment B, 5 mM, 510 h): 78.3 g/L
- Glucose ([4]; Experiment B, 10 mM, 0 h): 82.9 g/L
- Glucose ([4]; Experiment B, 10 mM, 172 h): 84.3 g/L
- Glucose ([4]; Experiment B, 10 mM, 340 h): 81.5 g/L
- Glucose ([4]; Experiment B, 10 mM, 510 h): 80.8 g/L
- Glucose ([4]; Experiment B, 20 mM, 0 h): 82.8 g/L
- Glucose ([4]; Experiment B, 20 mM, 172 h): 74.7 g/L
- Glucose ([4]; Experiment B, 20 mM, 340 h): 86.0 g/L
- Glucose ([4]; Experiment B, 20 mM, 510 h): 83.3 g/L
- Glucose ([4]; Experiment B, 40 mM, 0 h): 80.2 g/L
- Glucose ([4]; Experiment B, 40 mM, 172 h): 82.1 g/L
- Glucose ([4]; Experiment B, 40 mM, 340 h): 82.0 g/L
- Glucose ([4]; Experiment B, 40 mM, 510 h): 82.5 g/L
- bacterial growth ([4]; Experiment C (14 days storage at room temperature, then inoculated), concentrations above 5 mM): no growth was observed
- Glucose ([4]; Experiment C, 5 mM, 0 h): 81.2 g/L
- Glucose ([4]; Experiment C, 5 mM, 172 h): 81.6 g/L
- Glucose ([4]; Experiment C, 5 mM, 340 h): 85.5 g/L
- Glucose ([4]; Experiment C, 5 mM, 510 h): 82.0 g/L
- Glucose ([4]; Experiment C, 10 mM, 0 h): 82.2 g/L
- Glucose ([4]; Experiment C, 10 mM, 172 h): 81.8 g/L
- Glucose ([4]; Experiment C, 10 mM, 340 h): 84.0 g/L
- Glucose ([4]; Experiment C, 10 mM, 510 h): 82.4 g/L
- Glucose ([4]; Experiment C, 20 mM, 0 h): 80.8 g/L
- Glucose ([4]; Experiment C, 20 mM, 172 h): 80.3 g/L
- Glucose ([4]; Experiment C, 20 mM, 340 h): 84.5 g/L
- Glucose ([4]; Experiment C, 20 mM, 510 h): 83.3 g/L
- Glucose ([4]; Experiment C, 40 mM, 0 h): 82.0 g/L
- Glucose ([4]; Experiment C, 40 mM, 172 h): 81.6 g/L
- Glucose ([4]; Experiment C, 40 mM, 340 h): 86.2 g/L
- Glucose ([4]; Experiment C, 40 mM, 510 h): 82.0 g/L
